Measurements as given in patent US9708316B2 (BRISTOL-MYERS SQUIBB COMPANY, priority 2014, dated 2017).

Key:
HIS-TGFβR2 WT = HIS-TGFβR2 WT (Homo sapiens, UniProt P37173); test: HTRF probe-displacement assay, HIS-TGFβR2 WT; assay type: binding
HIS-TGFβR1 T204D = target: T1, HIS-TGFβR1 T204D (Homo sapiens, UniProt P36897, T204D); test: HTRF probe-displacement assay, HIS-TGFβR1 T204D; assay type: binding; conditions: read-out: TGFβR1 (μM) IC50
T1 sequence (P36897 34-503 T204D): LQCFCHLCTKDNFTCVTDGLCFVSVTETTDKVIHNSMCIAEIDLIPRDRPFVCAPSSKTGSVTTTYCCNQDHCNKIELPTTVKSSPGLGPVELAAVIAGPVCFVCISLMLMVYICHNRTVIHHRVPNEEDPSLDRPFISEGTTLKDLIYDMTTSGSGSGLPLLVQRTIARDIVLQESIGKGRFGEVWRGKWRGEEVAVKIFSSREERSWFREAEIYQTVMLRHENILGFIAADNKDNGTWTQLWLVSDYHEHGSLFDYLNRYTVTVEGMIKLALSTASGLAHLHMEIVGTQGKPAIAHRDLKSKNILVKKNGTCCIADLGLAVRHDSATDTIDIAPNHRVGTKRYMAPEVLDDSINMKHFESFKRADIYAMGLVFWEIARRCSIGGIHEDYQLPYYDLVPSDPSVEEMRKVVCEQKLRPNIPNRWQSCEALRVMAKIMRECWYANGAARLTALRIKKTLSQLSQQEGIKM

HIS-TGFβR2 WT, sequence (P37173 23-567): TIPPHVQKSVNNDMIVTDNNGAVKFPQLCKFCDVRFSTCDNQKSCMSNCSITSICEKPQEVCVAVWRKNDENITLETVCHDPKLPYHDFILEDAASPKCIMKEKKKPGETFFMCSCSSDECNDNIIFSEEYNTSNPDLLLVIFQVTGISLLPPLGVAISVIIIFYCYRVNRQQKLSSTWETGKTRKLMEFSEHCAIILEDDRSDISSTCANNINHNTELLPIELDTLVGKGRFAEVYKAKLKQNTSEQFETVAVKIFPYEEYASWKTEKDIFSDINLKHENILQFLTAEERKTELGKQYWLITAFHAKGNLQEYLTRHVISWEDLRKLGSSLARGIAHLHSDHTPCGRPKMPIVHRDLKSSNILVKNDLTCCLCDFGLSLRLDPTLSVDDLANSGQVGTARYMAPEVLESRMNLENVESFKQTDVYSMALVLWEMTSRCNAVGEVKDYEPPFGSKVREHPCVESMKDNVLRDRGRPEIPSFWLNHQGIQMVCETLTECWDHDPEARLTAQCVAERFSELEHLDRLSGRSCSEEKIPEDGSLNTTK

With `CC(=O)Nc1cc(-c2[nH]c3c(C)ccnc3c2-c2nc(C(F)(F)F)cs2)ccn1` [Example 212, N-(4-(7-Methyl-3-(4-(trifluoromethyl)thiazol-2-yl)-1H-pyrrolo[3,2-b]pyridin-2-yl)pyridin-2-yl)acetamide] the IC50 (HIS-TGFβR2 WT) was 8.82 µM and the IC50 (HIS-TGFβR1 T204D) was 0.0005 µM.

`CC(=O)Nc1cc(-c2[nH]c3cc(F)cnc3c2-c2ncc(C)s2)ccn1` [Example 183, N-(4-(6-Fluoro-3-(5-methylthiazol-2-yl)-1H-pyrrolo[3,2-b]pyridin-2-yl)pyridin-2-yl)acetamide] gave an IC50 (HIS-TGFβR2 WT) of 0.407 µM and an IC50 (HIS-TGFβR1 T204D) of 0.003 µM.

Work on `COC(=O)c1cc(Cl)nc2c(-c3ccc(Cl)cn3)c(-c3ccnc(NC(C)=O)c3)[nH]c12` [Example 70, Methyl 5-chloro-3-(5-chloropyridin-2-yl)-2-(2-acetamidopyridin-4-yl)-1H-pyrrolo[3,2-b]pyridine-7-carboxylate] yielded an IC50 (HIS-TGFβR2 WT) greater than 15 µM and an IC50 (HIS-TGFβR1 T204D) of 7.73 µM.

`COc1ccc(-c2c(-c3ccnc(NC(C)=O)c3)[nH]c3c(C)ccnc23)cn1` [Example 215, N-(4-(3-(6-Methoxypyridin-3-yl)-7-methyl-1H-pyrrolo[3,2-b]pyridin-2-yl)pyridin-2-yl)acetamide] was tested, and the IC50 (HIS-TGFβR2 WT) was 0.999 µM and the IC50 (HIS-TGFβR1 T204D) was 0.0885 µM.

`CC(=O)Nc1cc(-c2[nH]c3c(C(F)F)ccnc3c2-c2cccc(C(F)F)n2)ccn1` [Example 149, N-{4-[7-(Difluoromethyl)-3-[6-(difluoromethyl)pyridin-2-yl]-1H-pyrrolo[3,2-b]pyridin-2-yl]pyridin-2-yl}acetamide] was tested, and the IC50 (HIS-TGFβR2 WT) was 8.37 µM and the IC50 (HIS-TGFβR1 T204D) was 0.002 µM.

With `COc1ccc(-c2c(-c3ccnc(NC(C)=O)c3)[nH]c3c(CN)ccnc23)cn1` [Example 81, N-(4-(7-(Aminomethyl)-3-(6-methoxypyridin-3-yl)-1H-pyrrolo[3,2-b]pyridin-2-yl)pyridin-2-yl)acetamide] the IC50 (HIS-TGFβR2 WT) was 0.26 µM and the IC50 (HIS-TGFβR1 T204D) was 0.014 µM.

Compound `COc1ccc(-c2c(-c3ccnc(NC(C)=O)c3)[nH]c3cc(F)cnc23)cn1` [Example 40, N-{4-[6-Fluoro-3-(6-methoxypyridin-3-yl)-1H-pyrrolo[3,2-b]pyridin-2-yl]pyridin-2-yl}acetamide] has an IC50 (HIS-TGFβR2 WT) of 0.067 µM and an IC50 (HIS-TGFβR1 T204D) of 0.005 µM.

Compound `CC(=O)Nc1cc(-c2[nH]c3cccnc3c2-c2ccc(C(F)F)cn2)ccn1` [Example 108, N-(4-(3-(5-(Difluoromethyl)pyridin-2-yl)-1H-pyrrolo[3,2-b]pyridin-2-yl)pyridin-2-yl)acetamide] has an IC50 (HIS-TGFβR2 WT) greater than 15 µM and an IC50 (HIS-TGFβR1 T204D) of 0.145 µM.

In the case of `CC(=O)Nc1cc(-c2[nH]c3cc(Cl)cnc3c2-c2ncc(C)s2)ccn1` [Example 169], the IC50 (HIS-TGFβR2 WT) is reported as 0.882 µM and the IC50 (HIS-TGFβR1 T204D) is reported as 0.0023 µM.

In the case of `COc1cccc(-c2c(-c3ccnc(NC(C)=O)c3)[nH]c3cc(Cl)cnc23)n1` [Example 65, N-{4-[6-Chloro-3-(6-methoxypyridin-2-yl)-1H-pyrrolo[3,2-b]pyridin-2-yl]pyridin-2-yl}acetamide], the IC50 (HIS-TGFβR2 WT) is reported as greater than 15 µM and the IC50 (HIS-TGFβR1 T204D) is reported as 0.01 µM.

`COc1ccc2[nH]c(-c3ccnc(NC(C)=O)c3)c(-c3cccc(Cl)n3)c2n1` [Example 77] showed an IC50 (HIS-TGFβR2 WT) greater than 15 µM and an IC50 (HIS-TGFβR1 T204D) of 0.033 µM.

In the case of `CC(=O)Nc1cc(-c2[nH]c3c(CN4CCN(C)CC4)ccnc3c2-c2cccc(C(F)F)n2)ccn1` [Example 139, N-(4-{3-[6-(Difluoromethyl)pyridin-2-yl]-7-[(4-methylpiperazin-1-yl)methyl]-1H-pyrrolo[3,2-b]pyridin-2-yl}pyridin-2-yl)acetamide], the IC50 (HIS-TGFβR2 WT) is reported as 8.47 µM and the IC50 (HIS-TGFβR1 T204D) is reported as 0.001 µM.

`CC(=O)Nc1cc(-c2[nH]c3c(C(C)O)ccnc3c2-c2ccc(Cl)nc2)ccn1` (stereo not shown) [Example 264, N-(4-(3-(6-Chloropyridin-3-yl)-7-(1-hydroxyethyl)-1H-pyrrolo[3,2-b]pyridin-2-yl)pyridin-2-yl)acetamide] gave an IC50 (HIS-TGFβR2 WT) of 0.681 µM and an IC50 (HIS-TGFβR1 T204D) of 0.001 µM.

`COc1ccc(-c2c(-c3ccnc(NC(C)=O)c3)[nH]c3cc(N4CCC(OC)CC4)cnc23)nc1` [Example 158, N-(4-(6-(4-Methoxypiperidin-1-yl)-3-(5-methoxypyridin-2-yl)-1H-pyrrolo[3,2-b]pyridin-2-yl)pyridin-2-yl)acetamide] showed an IC50 (HIS-TGFβR2 WT) greater than 15 µM and an IC50 (HIS-TGFβR1 T204D) of 0.0163 µM.
